Results as given in patent US12312293B2, “Branched tail lipid compounds and compositions for intracellular delivery of therapeutic agents” (ModernaTX, Inc., priority 2019, dated 2025).

Legend:
[1] = Characteristics of lipid nanoparticles (size, PDI, encapsulation efficiency); assay type: physicochemical; conditions: LNP with DSPC, cholesterol, PEG-1 and the compound; for % EE: encapsulation efficiency; for PDI: polydispersity index
Text: Lipid nanoparticles (e.g., empty LNPs or loaded LNPs) may be characterized by a variety of methods. For example, microscopy (e.g., transmission electron microscopy or scanning electron microscopy) may be used to examine the morphology and size distribution of a nanoparticle composition. Dynamic light scattering or potentiometry (e.g., potentiometric titrations) may be used to measure zeta potentials. Dynamic light scattering may also be utilized to determine particle sizes. Instruments such as the Zetasizer Nano ZS (Malvern Instruments Ltd, Malvern, Worcestershire, UK) may also be used to measure multiple characteristics of a nanoparticle composition, such as particle size, polydispersity index, and zeta potential.
The efficiency of encapsulation of a therapeutic and/or prophylactic describes the amount of therapeutic and/or prophylactic that is encapsulated or otherwise associated with a lipid nanoparticle (e.g., an empty LNP or a loaded LNP) after preparation, relative to the initial amount provided. The encapsulation efficiency is desirably high (e.g., close to 100%). The encapsulation efficiency may be measured, for example, by comparing the amount of therapeutic and/or prophylactic in a solution containing the lipid nanoparticle (e.g., an empty LNP or a loaded LNP) before and after breaking up the lipid nanoparticle (e.g., an empty LNP or a loaded LNP) with one or more organic solvents or detergents. Fluorescence may be used to measure the amount of free therapeutic and/or prophylactic (e.g., RNA) in a solution. For the lipid nanoparticles (e.g., empty LNPs or loaded LNPs) described herein, the encapsulation efficiency of a therapeutic and/or prophylactic may be at least 50%, for example 50%, 55%, 60%, 65%, 70%, 75%, 80%, 85%, 90%, 91%, 92%, 93%, 94%, 95%, 96%, 97%, 98%, 99%, or 100%. In some embodiments, the encapsulation efficiency may be at least 80%. In certain embodiments, the encapsulation efficiency may be at least 90%. In some embodiments, the encapsulation efficiency of the therapeutic and/or prophylactic agent is between 80% and 100%.
Lipid nanoparticles (e.g., empty LNPs or loaded LNPs) including DSPC as a phospholipid, cholesterol as a structural lipid, PEG-1 as a PEG lipid, and a compound according to Formula (1-1), (2-1), (I-a), (A), (B), (A-1), (A-2), (A-3), (IA), (IB), (B-1), (B-2), (B-3), (A-a), (A-a1), (A-a2), (A-a3), (A-b), (A-b1), (A-b2), (A-b3), (A-c), or (B-c) were prepared. Tables 2a and 2b summarize the characteristics of the formulations.

[2] = Residual lipid levels in the liver of mice after LNP administration; assay type: in vivo; conditions: calculation assumes a 25 g mouse with a 1.5 g liver

Size (nm) [1] [nm]	% EE [1] [%]	PDI [1]	Approx. Percent Total Dose of Parent Lipid Remaining at 24 h [2] [%]	Structure (SMILES)
58.3	95.9	0.12		CCCCCC(CCCCC)CCOC(=O)CCCCCCCN(CCCCCCCC(=O)OCCC(CCC)CCC)CCCNc1c(NC)c(=O)c1=O [Compound 51, 3-Pentyloctyl 8-((3-((2-(methylamino)-3,4-dioxocyclobut-1-en-1-yl)amino)propyl)(8-oxo-8-((3-propylhexyl)oxy)octyl)amino)octanoate]
70.5	84.9	0.16		CCCCC(CCCC)CCOC(=O)CCCCCCCN(CCCCCCCC(=O)OCCC(CCC)CCC)CCCNc1c(NC)c(=O)c1=O [Compound 52, 3-Butylheptyl 8-((3-((2-(methylamino)-3,4-dioxocyclobut-1-en-1-yl)amino)propyl)(8-oxo-8-((3-propylhexyl)oxy)octyl)amino)octanoate]
106.7	84.2	0.28		CCCC(CCC)CCOC(=O)CCCCCCCN(CCCCCCCC(=O)OCCC(CCC)CCC)CCCNc1c(NC)c(=O)c1=O [Compound 53, Bis(3-propylhexyl) 8,8′-((3-((2-(methylamino)-3,4-dioxocyclobut-1-en-1-yl)amino)propyl)azanediyl)dioctanoate]
64.3	98.3	0.10		CCCCCC(CCCCC)CCOC(=O)CCCCCCCN(CCCCCCCC(=O)OCCC(CCCC)CCCC)CCCNc1c(NC)c(=O)c1=O [Compound 54, 3-Butylheptyl 8-((3-((2-(methylamino)-3,4-dioxocyclobut-1-en-1-yl)amino)propyl)(8-oxo-8-((3-pentyloctyl)oxy)octyl)amino)octanoate]
77.0	88.9	0.25		CCCCC(CCCC)CCOC(=O)CCCCCCCN(CCCCCCCC(=O)OCCC(CCCC)CCCC)CCCNc1c(NC)c(=O)c1=O [Compound 55, Bis(3-butylheptyl) 8,8′-((3-((2-(methylamino)-3,4-dioxocyclobut-1-en-1-yl)amino)propyl)azanediyl)dioctanoate]
69.4	90.1	0.12		CCCCCC(CCCCC)CCOC(=O)CCCCCCCN(CCCCCCCC(=O)OC(CCCCC)CCCCC)CCCNc1c(NC)c(=O)c1=O [Compound 57, 3-Pentyloctyl 8-((3-((2-(methylamino)-3,4-dioxocyclobut-1-en-1-yl)amino)propyl)(8-oxo-8-(undecan-6-yloxy)octyl)amino)octanoate]
63.9	90.1	0.12		CCCCCC(CCCCC)CCOC(=O)CCCCCCCN(CCCCCCCC(=O)OC(CCCC)CCCC)CCCNc1c(NC)c(=O)c1=O [Compound 58, Nonan-5-yl 8-((3-((2-(methylamino)-3,4-dioxocyclobut-1-en-1-yl)amino)propyl)(8-oxo-8-((3-pentyloctyl)oxy)octyl)amino)octanoate]
60.4	98.8	0.14		CCCCCCC(CCCCCC)OC(=O)CCCCCCCN(CCCCCCCC(=O)OCCC(CCCC)CCCC)CCCNc1c(NC)c(=O)c1=O [Compound 60, 3-Butylheptyl 8-((3-((2-(methylamino)-3,4-dioxocyclobut-1-en-1-yl)amino)propyl)(8-oxo-8-(tridecan-7-yloxy)octyl)amino)octanoate]
63.5	98.1	0.09		CCCCCC(CCCCC)OC(=O)CCCCCCCN(CCCCCCCC(=O)OCCC(CCCC)CCCC)CCCNc1c(NC)c(=O)c1=O [Compound 61, 3-Butylheptyl 8-((3-((2-(methylamino)-3,4-dioxocyclobut-1-en-1-yl)amino)propyl)(8-oxo-8-(undecan-6-yloxy)octyl)amino)octanoate]
91.0	83.0	0.17		CCCCC(CCCC)CCOC(=O)CCCCCCCN(CCCCCCCC(=O)OC(CCCC)CCCC)CCCNc1c(NC)c(=O)c1=O [Compound 62, 3-Butylheptyl 8-((3-((2-(methylamino)-3,4-dioxocyclobut-1-en-1-yl)amino)propyl)(8-(nonan-5-yloxy)-8-oxooctyl)amino)octanoate]
56.2	98.1	0.15	9 ± 3	CCCCCCCC(CCCCCCC)OC(=O)CCCCCCCN(CCCCCCCC(=O)OCCC(CCC)CCC)CCCNc1c(NC)c(=O)c1=O [Compound 63, Pentadecan-8-yl 8-((3-((2-(methylamino)-3,4-dioxocyclobut-1-en-1-yl)amino)propyl)(8-oxo-8-((3-propylhexyl)oxy)octyl)amino)octanoate]
73.6	89.2	0.13		CCCCCCC(CCCCCC)OC(=O)CCCCCCCN(CCCCCCCC(=O)OCCC(CCC)CCC)CCCNc1c(NC)c(=O)c1=O [Compound 64, 3-Propylhexyl 8-((3-((2-(methylamino)-3,4-dioxocyclobut-1-en-1-yl)amino)propyl)(8-oxo-8-(tridecan-7-yloxy)octyl)amino)octanoate]
83.1	88.6	0.17		CCCCCC(CCCCC)OC(=O)CCCCCCCN(CCCCCCCC(=O)OCCC(CCC)CCC)CCCNc1c(NC)c(=O)c1=O [Compound 65, 3-Propylhexyl 8-((3-((2-(methylamino)-3,4-dioxocyclobut-1-en-1-yl)amino)propyl)(8-oxo-8-(undecan-6-yloxy)octyl)amino)octanoate]
145.3	81.7	0.25		CCCCC(CCCC)OC(=O)CCCCCCCN(CCCCCCCC(=O)OCCC(CCC)CCC)CCCNc1c(NC)c(=O)c1=O [Compound 66, Nonan-5-yl 8-((3-((2-(methylamino)-3,4-dioxocyclobut-1-en-1-yl)amino)propyl)(8-oxo-8-((3-propylhexyl)oxy)octyl)amino)octanoate]
